# From patent US11357834B2, “Recombinant α-galactosidase A for treatment of Fabry disease” (Amicus Therapeutics, Inc., priority 2017, dated 2022)
# Columns and labels:
# [1] = Predicted human migalastat exposure after single IV dose and exposure margins
# Description: (§1) Selection of Doses in the Study: The current single dose levels were selected on the basis of predicted human PK following IV dosing, non-clinical safety margins, and target therapeutic migalastat exposures for efficacy.
# [2] = General toxicology NOAEL, rat; parameters: AUC: dose or concentration left out as unconfirmed; settings: in vivo
# [3] = in vivo; settings: monkey, 500 mg/kg/day
# Description: as §1
# [4] = Phase 1 IV and oral migalastat HCl pharmacokinetics in healthy volunteers; assay type: in vivo, human
# Experimental: Healthy volunteers received migalastat HCl via the IV route of administration to evaluate safety, tolerability, and pharmacokinetics. Another study was performed to determine the absolute bioavailability of migalastat after an oral capsule dose as compared to an IV administered dose of migalastat HCl in healthy volunteers.
# Type of Study: This Phase 1 study was a single-center study consisting of 2 designs. Cohorts 1, 2, and 3 were performed according to a randomized, double-blind, placebo-controlled, single ascending dose (SAD) IV study design to evaluate the safety, tolerability, and PK of IV administered migalastat HCl or IV administered placebo in healthy subjects. Cohort 4 was an open-label, randomized two-way crossover arm designed to assess the absolute bioavailability of orally administered migalastat HCl relative to IV administered migalastat HCl in healthy subjects.
# Cohorts 1, 2, 3: Subjects in Cohorts 1, 2, and 3 received IV administered single ascending doses of migalastat HCl. Seven subjects were enrolled into each cohort (5 subjects randomized to migalastat HCl and 2 subjects randomized to placebo). Dosing of Cohorts 1, 2, and 3 was staggered to allow for safety and tolerability review before proceeding with the next group. Therefore, Cohorts 1, 2, and 3 were each divided into 2 sub-groups: Group A (2 subjects randomized to migalastat HCl and 1 subject randomized to placebo) and Group B (3 subjects randomized to migalastat HCl and 1 subject randomized to placebo). Subjects in Group B were dosed the day following completion of Group A dosing. Except for Cohort 3B, which was dosed 31 days after Cohort 3A because an interim PK review was performed on emerged data from Cohort 3A.
# Cohort 4 was randomized such that 5 subjects received the oral formulation and 5 subjects received the IV formulation during Period 1, followed by the alternate formulation during Period 2. • *During Period 1, all Day −1 through Day 3 assessments were performed. ** The washout period was 7 days. *** During Period 2, subjects repeated all Day −1 through Day 3 assessments.
# Subjects enrolled in Cohorts 1, 2, and 3 were randomized to receive one of the following doses of migalastat HCl (n=5) or placebo (n=2):
# [5] = human, in vivo, po, 1250 mg
# [6] = cited from earlier work
# [7] = tested on: GL-3 and plasma lyso-Gb3; assay: Repeat administration efficacy, two bi-weekly IV administrations (Example 9); assay type: in vivo, Gla KO mice; settings: enzyme alone, 1 to 10 mg/kg
# Experimental: The efficacy of rhα-Gal A 01-003 with and without migalastat and Fabrazyme (agalsidase beta) were compared. Enzyme was administered via a bolus infusion into Gla KO mice with or without co-formulation with 3 mg/kg migalastat. ˜16 week old male Gla KO mice (n=8; 72 in total) were given two bi-weekly IV administrations.
# [8] = tested on: GL-3 and plasma lyso-Gb3; assay: Single bolus IV administration efficacy, necropsy 7 days after dose (Example 10); assay type: in vivo, Gla KO mice
# Experimental: The efficacy of rhα-Gal A 01-003 with and without migalastat and Fabrazyme (agalsidase beta) were compared. Enzyme was administered via a single bolus infusion into Gla KO mice with or without co-formulation with migalastat. ˜18 week old male Gla KO mice (7 per group) were given a single bolus IV administration and necropsies were performed 7 days after dose. The treatment groups are shown in Table 15 and the results are shown in FIGS. 21A-21D and Tables 16-19.
# [9] = tested on: GL-3; assay: GL-3 one week after single IV administration (Example 7); assay type: in vivo, Gla KO mice; settings: 1 mg/kg enzyme IV, one week post-administration
# Experimental: Gla KO mice were administered 1 mg/kg of enzyme IV and GL-3 measured one week post-administration.
# [10] = tested on: GL-3 and plasma lyso-Gb3; assay: Substrate reduction seven days after single administration (Example 6); assay type: in vivo, Gla KO mice; settings: 3 mg/kg enzyme
# Experimental: The effect on substrate reduction when combining these enzymes in a co-formulation with migalastat was also assessed. […]
# In addition to assessment of enzyme activity in tissues, the degree of substrate reduction seven days post-administration was determined.
compound,measurement,setting,value
"Cl.OC[C@H]1NC[C@H](O)[C@@H](O)[C@H]1O [Migalastat HCl, migalastat HCl]","Fold Cover to AUC from human oral 1250 mg, Max",[1]; 0.3 mg/kg IV,62
same,"Fold Cover to AUC from human oral 1250 mg, Median",[1]; 0.3 mg/kg IV,39
same,"Fold Cover to AUC from human oral 1250 mg, Min",[1]; 0.3 mg/kg IV,15.5
same,"Fold Cover to Cmax from human oral 1250 mg, Max",[1]; 0.3 mg/kg IV,61
same,"Fold Cover to Cmax from human oral 1250 mg, Median",[1]; 0.3 mg/kg IV,36
same,"Fold Cover to Cmax from human oral 1250 mg, Min",[1]; 0.3 mg/kg IV,2.6
same,"Fold Cover to NOAEL AUC, Monkey",[1]; 0.3 mg/kg IV,165
same,"Fold Cover to NOAEL AUC, Rat",[1]; 0.3 mg/kg IV,134
same,"Fold Cover to NOAEL Cmax, Monkey",[1]; 0.3 mg/kg IV,68
same,"Fold Cover to NOAEL Cmax, Rat",[1]; 0.3 mg/kg IV,65
same,"Fold Cover to AUC from human oral 1250 mg, Max",[1]; 10.0 mg/kg IV,1.89
same,"Fold Cover to AUC from human oral 1250 mg, Median",[1]; 10.0 mg/kg IV,1.19
same,"Fold Cover to AUC from human oral 1250 mg, Min",[1]; 10.0 mg/kg IV,0.47
same,"Fold Cover to Cmax from human oral 1250 mg, Max",[1]; 10.0 mg/kg IV,1.81
same,"Fold Cover to Cmax from human oral 1250 mg, Median",[1]; 10.0 mg/kg IV,1.07
same,"Fold Cover to Cmax from human oral 1250 mg, Min",[1]; 10.0 mg/kg IV,0.08
same,"Fold Cover to NOAEL AUC, Monkey",[1]; 10.0 mg/kg IV,4.98
same,"Fold Cover to NOAEL AUC, Rat",[1]; 10.0 mg/kg IV,4.05
same,"Fold Cover to NOAEL Cmax, Monkey",[1]; 10.0 mg/kg IV,2.02
same,"Fold Cover to NOAEL Cmax, Rat",[1]; 10.0 mg/kg IV,1.93
same,AUC,[2],249 µg·h/mL
same,Cmax at Rat NOAEL,[2]; 1500 μg/kg/day,23400 ng/mL
same,AUC,[3],306 µg·h/mL
same,"maximum arithmetic mean plasma concentration, IV dosing relative to oral dosing",[4]; 150 mg IV vs 150 mg oral,approximately 2 fold
same,time of maximum arithmetic mean plasma concentration after start of infusion,"[4]; IV 150 mg, 2-hour infusion",2 h
same,dose dependence of mean plasma concentration-time profiles,[4]; increasing IV doses 0.3 to 10 mg/kg,clear dose-dependent increase in plasma concentrations
same,time of maximum arithmetic mean plasma concentration after start of infusion,"[4]; single 2-hour IV infusion, 0.3 to 10 mg/kg",2 h
same,Maximum observed individual AUC,[5],115.9 µg·h/mL
same,Maximum observed individual Cmax,[5],21900 ng/mL
same,Median observed individual AUC,[5],73.2 µg·h/mL
same,Median observed individual Cmax,[5],13000 ng/mL
same,Minimum observed individual AUC,[5],28.9 µg·h/mL
same,Minimum observed individual Cmax,[5],4780 ng/mL
same,maximum exposure (AUC),[5],116 µg·h/mL
same,exposure linearity,"[6]; oral administrations, to 1250 mg",linear exposures
same,tissue uptake of active α-Gal A into skin,"[6]; phase 2a, 23 Fabry patients, single oral 150 mg co-administered with 0.2, 0.5, and 1.0 mg/kg agalsidase",improved tissue uptake of active α-Gal A into skin
Fabrazyme: homodimeric recombinant human α-Gal A marketed by Genzyme under the name Fabrazyme,"GL-3 in heart and kidney, dose-response",[7],good dose-response
same,"GL-3 in skin and plasma lyso-GB3, dose-response",[7],good dose-response
same,GL-3 levels Heart,[8]; 1 mg/kg,183.23 μg/g tissue
same,GL-3 levels Kidney,[8]; 1 mg/kg,443 μg/g tissue
same,GL-3 levels Skin,[8]; 1 mg/kg,1465 μg/g tissue
same,Plasma lyso-Gb3 levels,[8]; 1 mg/kg,122 ng/mL
same,GL-3 levels Heart,[8]; 10 mg/kg,53.20 μg/g tissue
same,GL-3 levels Kidney,[8]; 10 mg/kg,281 μg/g tissue
same,GL-3 levels Skin,[8]; 10 mg/kg,207 μg/g tissue
same,Plasma lyso-Gb3 levels,[8]; 10 mg/kg,29.5 ng/mL
same,GL-3 levels Heart,[8]; 25 mg/kg,21.10 μg/g tissue
same,GL-3 levels Kidney,[8]; 25 mg/kg,203 μg/g tissue
same,GL-3 levels Skin,[8]; 25 mg/kg,102 μg/g tissue
same,Plasma lyso-Gb3 levels,[8]; 25 mg/kg,18.1 ng/mL
rhα-Gal A 01-003: recombinant human α-galactosidase A produced by CHO cell clone 01-003,α-Gal A substrate (GL-3) in heart and kidney,[9],able to reduce α-Gal A substrate in heart and kidney
same,"GL-3 in heart and kidney, dose-response",[7],good dose-response
same,"GL-3 in skin and plasma lyso-GB3, dose-response",[7],good dose-response
same,GL-3 levels Heart,[8]; 10 mg/kg,30.30 μg/g tissue
same,GL-3 levels Kidney,[8]; 10 mg/kg,277 μg/g tissue
same,GL-3 levels Skin,[8]; 10 mg/kg,149 μg/g tissue
same,Heart GL-3 % reduction compared to Fabrazyme (10 mg/kg),[8]; 10 mg/kg,43.05%
same,Kidney GL-3 % reduction compared to Fabrazyme (10 mg/kg),[8]; 10 mg/kg,1.42%
same,Plasma lyso-Gb3 % reduction compared to Fabrazyme (10 mg/kg),[8]; 10 mg/kg,2.71%
same,Plasma lyso-Gb3 levels,[8]; 10 mg/kg,28.7 ng/mL
same,Skin GL-3 % reduction compared to Fabrazyme (10 mg/kg),[8]; 10 mg/kg,28.02%
same,overall substrate reduction (GL-3 and lyso-Gb3),[8]; rhα-Gal A 10 mg/kg,greater substrate reduction than an equivalent dose of Fabrazyme
rhα-Gal A 04-023: recombinant human α-galactosidase A produced by CHO cell clone 04-023,plasma lyso-Gb3 compared to Fabrazyme alone (1 mg/kg),[10]; seven days,significantly lower levels of plasma lyso-Gb3
same,reduction of GL-3 in heart tissue compared to 1 mg/kg Fabrazyme,[10]; seven days (FIG. 15A),significantly enhanced reduction of GL-3
same,reduction in GL-3 in kidney,[10]; seven days (FIG. 15B),enhanced substrate reduction
same,GL-3 in skin compared to Fabrazyme alone (1 mg/kg),[10]; seven days (FIG. 15C),significantly lower level of GL-3 in skin
